Calls of active or inactive are those of the source. The calls are words filed in the database; no cut-off is given here.
What was measured:
[1] = tested on: RS4-11; test: Induction of cell cycle arrest in human RS4-11 cells assessed as accumulation of cells in subG1 phase at 1.25 to 10 uM measured after 72 hrs by PI staining based flow cytometry analysis; assay type: functional; conditions: dose 1.25-10 µM
[2] = tested on: RS4-11; test: Downregulation of HOXA9 protein expression in human RS4-11 cells at 5 to 20 uM measured after 24 hrs by Western blot analysis; assay type: functional, cell-based; conditions: dose 5-20 µM
[3] = tested on: CCRF-CEM; test: Antiproliferative activity against human CEM cells assessed as reduction in cell viability incubated for 72 hrs by resazurin dye based assay; assay type: functional
[4] = tested on: MV4-11; test: Antiproliferative activity against human MV4-11 cells assessed as reduction in cell viability incubated for 72 hrs by resazurin dye based assay; assay type: functional; conditions: MV4-11, 72 h
[5] = tested on: RS4-11; test: Antiproliferative activity against human RS4-11 cells assessed as reduction in cell viability incubated for 72 hrs by resazurin dye based assay; assay type: functional; conditions: RS4-11, 72 h
[6] = tested on: RS4-11; test: Induction of cell cycle arrest in human RS4-11 cells assessed as accumulation of cells in G2/M phase at 1.25 to 10 uM measured after 72 hrs by PI staining based flow cytometry analysis; assay type: functional; conditions: dose 1.25-10 µM
[7] = tested on: ML-2; test: Antiproliferative activity against human ML-2 cells assessed as reduction in cell viability incubated for 72 hrs by resazurin dye based assay; assay type: functional; conditions: ML-2, 72 h
[8] = tested on: KOPN-8; test: Antiproliferative activity against human KOPN-8 cells assessed as reduction in cell viability incubated for 72 hrs by resazurin dye based assay; assay type: functional; conditions: KOPN-8, 72 h
[9] = tested on: RS4-11; test: Downregulation of MEIS1 protein expression in human RS4-11 cells at 5 to 20 uM measured after 24 hrs by Western blot analysis; assay type: functional, cell-based; conditions: dose 5-20 µM
[10] = tested on: K562; test: Antiproliferative activity against human K562 cells assessed as reduction in cell viability incubated for 72 hrs by resazurin dye based assay; assay type: functional; conditions: K562, 72 h
[11] = tested on: CCRF-CEM; test: Antiproliferative activity against human CCRF-CEM cells assessed as growth inhibition at 10 uM measured after 48 hrs by NCI protocol based SRB assay relative to control; assay type: functional; conditions: read-out: GI
[12] = tested on: SW-620; test: Antiproliferative activity against human SW-620 cells assessed as growth inhibition at 10 uM measured after 48 hrs by NCI protocol based SRB assay relative to control; assay type: functional; conditions: read-out: GI
[13] = tested on: HT-29; test: Antiproliferative activity against human HT-29 cells assessed as growth inhibition at 10 uM measured after 48 hrs by NCI protocol based SRB assay relative to control; assay type: functional; conditions: read-out: GI
[14] = tested on: SR; test: Antiproliferative activity against human SR cells assessed as growth inhibition at 10 uM measured after 48 hrs by NCI protocol based SRB assay relative to control; assay type: functional; conditions: read-out: GI
[15] = tested on: UACC-62; test: Antiproliferative activity against human UACC-62 cells assessed as growth inhibition at 10 uM measured after 48 hrs by NCI protocol based SRB assay relative to control; assay type: functional; conditions: read-out: GI
[16] = tested on: MDA-MB-468; test: Antiproliferative activity against human MDA-MB-468 cells assessed as growth inhibition at 10 uM measured after 48 hrs by NCI protocol based SRB assay relative to control; assay type: functional; conditions: read-out: GI
[17] = tested on: UO-31; test: Antiproliferative activity against human UO-31 cells assessed as growth inhibition at 10 uM measured after 48 hrs by NCI protocol based SRB assay relative to control; assay type: functional; conditions: read-out: GI
[18] = tested on: MOLT-4; test: Antiproliferative activity against human MOLT-4 cells assessed as growth inhibition at 10 uM measured after 48 hrs by NCI protocol based SRB assay relative to control; assay type: functional; conditions: read-out: GI
[19] = tested on: NCI-H460; test: Antiproliferative activity against human NCI-H460 cells assessed as growth inhibition at 10 uM measured after 48 hrs by NCI protocol based SRB assay relative to control; assay type: functional; conditions: read-out: GI
[20] = tested on: SF-539; test: Antiproliferative activity against human SF-539 cells assessed as growth inhibition at 10 uM measured after 48 hrs by NCI protocol based SRB assay relative to control; assay type: functional; conditions: read-out: GI
[21] = tested on: MDA-MB-435; test: Antiproliferative activity against human MDA-MB-435 cells assessed as growth inhibition at 10 uM measured after 48 hrs by NCI protocol based SRB assay relative to control; assay type: functional; conditions: read-out: GI
[22] = tested on: SK-MEL-2; test: Antiproliferative activity against human SK-MEL-2 cells assessed as growth inhibition at 10 uM measured after 48 hrs by NCI protocol based SRB assay relative to control; assay type: functional; conditions: read-out: GI
[23] = tested on: MDA-MB-231; test: Antiproliferative activity against human MDA-MB-231 cells assessed as growth inhibition at 10 uM measured after 48 hrs by NCI protocol based SRB assay relative to control; assay type: functional; conditions: read-out: GI
[24] = tested on: K562; test: Antiproliferative activity against human K562 cells assessed as growth inhibition at 10 uM measured after 48 hrs by NCI protocol based SRB assay relative to control; assay type: functional; conditions: read-out: GI
[25] = tested on: HOP-92; test: Antiproliferative activity against human HOP-92 cells assessed as growth inhibition at 10 uM measured after 48 hrs by NCI protocol based SRB assay relative to control; assay type: functional; conditions: read-out: GI
[26] = tested on: OVCAR-4; test: Antiproliferative activity against human OVCAR-4 cells assessed as growth inhibition at 10 uM measured after 48 hrs by NCI protocol based SRB assay relative to control; assay type: functional; conditions: read-out: GI
[27] = tested on: T47D; test: Antiproliferative activity against human T47D cells assessed as growth inhibition at 10 uM measured after 48 hrs by NCI protocol based SRB assay relative to control; assay type: functional; conditions: read-out: GI
[28] = tested on: SK-MEL-5; test: Antiproliferative activity against human SK-MEL-5 cells assessed as growth inhibition at 10 uM measured after 48 hrs by NCI protocol based SRB assay relative to control; assay type: functional; conditions: read-out: GI
[29] = tested on: MCF7; test: Antiproliferative activity against human MCF7 cells assessed as growth inhibition at 10 uM measured after 48 hrs by NCI protocol based SRB assay relative to control; assay type: functional; conditions: read-out: GI
[30] = tested on: HCT-116; test: Antiproliferative activity against human HCT-116 cells assessed as growth inhibition at 10 uM measured after 48 hrs by NCI protocol based SRB assay relative to control; assay type: functional; conditions: read-out: GI
[31] = tested on: A549; test: Antiproliferative activity against human A549 cells assessed as growth inhibition at 10 uM measured after 48 hrs by NCI protocol based SRB assay relative to control; assay type: functional; conditions: read-out: GI
[32] = tested on: CAKI-1; test: Antiproliferative activity against human CAKI-1 cells assessed as growth inhibition at 10 uM measured after 48 hrs by NCI protocol based SRB assay relative to control; assay type: functional; conditions: read-out: GI
[33] = tested on: IGROV-1; test: Antiproliferative activity against human IGROV-1 cells assessed as growth inhibition at 10 uM measured after 48 hrs by NCI protocol based SRB assay relative to control; assay type: functional; conditions: read-out: GI
[34] = tested on: EKVX; test: Antiproliferative activity against human EKVX cells assessed as growth inhibition at 10 uM measured after 48 hrs by NCI protocol based SRB assay relative to control; assay type: functional; conditions: read-out: GI
[35] = tested on: SNB-19; test: Antiproliferative activity against human SNB-19 cells assessed as growth inhibition at 10 uM measured after 48 hrs by NCI protocol based SRB assay relative to control; assay type: functional; conditions: read-out: GI
[36] = tested on: NCI-H522; test: Antiproliferative activity against human NCI-H522 cells assessed as growth inhibition at 10 uM measured after 48 hrs by NCI protocol based SRB assay relative to control; assay type: functional; conditions: read-out: GI
[37] = tested on: U-251; test: Antiproliferative activity against human U-251 cells assessed as growth inhibition at 10 uM measured after 48 hrs by NCI protocol based SRB assay relative to control; assay type: functional; conditions: read-out: GI
[38] = tested on: RPMI-8226; test: Antiproliferative activity against human RPMI-8226 cells assessed as growth inhibition at 10 uM measured after 48 hrs by NCI protocol based SRB assay relative to control; assay type: functional; conditions: read-out: GI
[39] = tested on: SN12C; test: Antiproliferative activity against human SN12C cells assessed as growth inhibition at 10 uM measured after 48 hrs by NCI protocol based SRB assay relative to control; assay type: functional; conditions: read-out: GI
[40] = tested on: SNB-75; test: Antiproliferative activity against human SNB-75 cells assessed as growth inhibition at 10 uM measured after 48 hrs by NCI protocol based SRB assay relative to control; assay type: functional; conditions: read-out: GI
[41] = tested on: HCT-15; test: Antiproliferative activity against human HCT-15 cells assessed as growth inhibition at 10 uM measured after 48 hrs by NCI protocol based SRB assay relative to control; assay type: functional; conditions: read-out: GI
[42] = tested on: SK-OV-3; test: Antiproliferative activity against human SK-OV-3 cells assessed as growth inhibition at 10 uM measured after 48 hrs by NCI protocol based SRB assay relative to control; assay type: functional; conditions: read-out: GI
[43] = tested on: KM12; test: Antiproliferative activity against human KM12 cells assessed as growth inhibition at 10 uM measured after 48 hrs by NCI protocol based SRB assay relative to control; assay type: functional; conditions: read-out: GI
[44] = tested on: NCI/ADR-RES; test: Antiproliferative activity against human NCl/ADR-RES cells assessed as growth inhibition at 10 uM measured after 48 hrs by NCI protocol based SRB assay relative to control; assay type: functional; conditions: read-out: GI
[45] = tested on: SF-268; test: Antiproliferative activity against human SF-268 cells assessed as growth inhibition at 10 uM measured after 48 hrs by NCI protocol based SRB assay relative to control; assay type: functional; conditions: read-out: GI
[46] = tested on: ACHN; test: Antiproliferative activity against human ACHN cells assessed as growth inhibition at 10 uM measured after 48 hrs by NCI protocol based SRB assay relative to control; assay type: functional; conditions: read-out: GI
[47] = tested on: 786-0; test: Antiproliferative activity against human 786-0 cells assessed as growth inhibition at 10 uM measured after 48 hrs by NCI protocol based SRB assay relative to control; assay type: functional; conditions: read-out: GI
[48] = tested on: OVCAR-8; test: Antiproliferative activity against human OVCAR-8 cells assessed as growth inhibition at 10 uM measured after 48 hrs by NCI protocol based SRB assay relative to control; assay type: functional; conditions: read-out: GI
[49] = tested on: UACC-257; test: Antiproliferative activity against human UACC-257 cells assessed as growth inhibition at 10 uM measured after 48 hrs by NCI protocol based SRB assay relative to control; assay type: functional; conditions: read-out: GI
[50] = tested on: NCI-H226; test: Antiproliferative activity against human NCI-H226 cells assessed as growth inhibition at 10 uM measured after 48 hrs by NCI protocol based SRB assay relative to control; assay type: functional; conditions: read-out: GI
[51] = tested on: PC-3; test: Antiproliferative activity against human PC-3 cells assessed as growth inhibition at 10 uM measured after 48 hrs by NCI protocol based SRB assay relative to control; assay type: functional; conditions: read-out: GI

N#Cc1c(-c2ccc(F)cc2)nc2c(c(-c3ccccc3)nn2-c2ccccc2)c1-c1ccc(O)cc1
Activity [1]: Active | Activity [2]: Active | IC50 [3]: > 25 µM | IC50 [4]: 11.6 µM | IC50 [5]: 9.9 µM | Activity [6]: Active | IC50 [7]: 6.7 µM | IC50 [8]: 1.3 µM | Activity [9]: Active | IC50 [10]: 10.2 µM

COc1cc(-c2c(C#N)c(-c3ccco3)nc3c2c(-c2ccccc2)nn3-c2ccccc2)ccc1O
inhibition of growth at 10 µM [11]: 25% | inhibition of growth at 10 µM [12]: 11% | inhibition of growth at 10 µM [13]: 15% | inhibition of growth at 10 µM [14]: 34% | inhibition of growth at 10 µM [15]: 18% | inhibition of growth at 10 µM [16]: 14% | inhibition of growth at 10 µM [17]: 27% | inhibition of growth at 10 µM [18]: 47% | inhibition of growth at 10 µM [19]: 28% | inhibition of growth at 10 µM [20]: 13% | inhibition of growth at 10 µM [21]: 23% | inhibition of growth at 10 µM [22]: 11% | inhibition of growth at 10 µM [23]: 17% | inhibition of growth at 10 µM [24]: 32% | inhibition of growth at 10 µM [25]: 33% | inhibition of growth at 10 µM [26]: 19% | inhibition of growth at 10 µM [27]: 34% | inhibition of growth at 10 µM [28]: 20% | inhibition of growth at 10 µM [29]: 34% | inhibition of growth at 10 µM [30]: 43% | IC50 [3]: 36.5 µM | inhibition of growth at 10 µM [31]: 39% | IC50 [4]: 35.3 µM | inhibition of growth at 10 µM [32]: 29% | inhibition of growth at 10 µM [33]: 13% | inhibition of growth at 10 µM [34]: 31% | inhibition of growth at 10 µM [35]: 13% | inhibition of growth at 10 µM [36]: 30% | inhibition of growth at 10 µM [37]: 15% | inhibition of growth at 10 µM [38]: 21% | inhibition of growth at 10 µM [39]: 18% | inhibition of growth at 10 µM [40]: 27% | inhibition of growth at 10 µM [41]: 28% | inhibition of growth at 10 µM [42]: 15% | inhibition of growth at 10 µM [43]: 15% | inhibition of growth at 10 µM [44]: 19% | IC50 [10]: 24.9 µM | inhibition of growth at 10 µM [45]: 25% | inhibition of growth at 10 µM [46]: 12% | inhibition of growth at 10 µM [47]: 26% | inhibition of growth at 10 µM [48]: 15% | inhibition of growth at 10 µM [49]: 16% | inhibition of growth at 10 µM [50]: 15% | inhibition of growth at 10 µM [51]: 41%
